Test results taken from US20230111310A1, “CARBOXYLIC ACID DERIVATIVE-SUBSTITUTED IMINO ARYL COMPOUND, PREPARATION METHOD THEREFOR, HERBICIDAL COMPOSITION AND USE THEREOF” (Qingdao Kingagroot Chemical Compound Co., Ltd., priority 2020, published 2023).

tested on: Echinochloa crusgalli; experiment: Weeding effect in post-emergence stage; type: in vivo; details: Dose 15 g/ha; level of fresh weight growth control rate
Procedure, shortened: (§1)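 Doses of 500, 250, 125, 60, 30, 15 and 7.5 g/ha, with methyl oleate synergist (1.5 liter/ha) and Tween 80 from acetone solution, applied by spray tower post-emergence (2–3 leaf stage). Weed control scored after 3 further greenhouse weeks, averaged over triplicates.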

Structure (SMILES) | Weeding effect in post-emergence stage, Echinochloa crusgalli
COC/C(C)=N/OC(=O)C(C)O/N=C/c1cc(-n2c(=O)cc(C(F)(F)F)n(C)c2=O)c(F)cc1Cl (stereo not drawn) [Compound 253] | 5 (Level 5: growth control rate is above 85%)
CCOC(=O)/C(C)=N/OC(=O)C(C)O/N=C/c1cc(-n2c(=O)cc(C(F)(F)F)n(C)c2=O)c(F)cc1Cl (stereo not drawn) [Compound 254] | 5 (Level 5: growth control rate is above 85%)
CC(O/N=C/c1cc(-n2c(=O)cc(C(F)(F)F)n(C)c2=O)c(F)cc1Cl)C(=O)ON=C1CCCC1 (stereo not drawn) [Compound 258] | 5 (Level 5: growth control rate is above 85%)

same assay, conditions: Dose 30 g/ha; level of fresh weight growth control rate

Structure (SMILES) | Weeding effect in post-emergence stage, Echinochloa crusgalli
COC(=O)CCOC(=O)C(C)O/N=C/c1cc(-n2c(=O)cc(C(F)(F)F)n(C)c2=O)c(F)cc1Cl (stereo not drawn) [Compound 240] | 5 (Level 5: growth control rate is above 85%)
COC(=O)C(C)OC(=O)C(C)O/N=C/c1cc(-n2c(=O)cc(C(F)(F)F)n(C)c2=O)c(F)cc1Cl (stereo not drawn) [Compound 241] | 5 (Level 5: growth control rate is above 85%)
COC(=O)C(OC)OC(=O)C(C)O/N=C/c1cc(-n2c(=O)cc(C(F)(F)F)n(C)c2=O)c(F)cc1Cl (stereo not drawn) [Compound 245] | 5 (Level 5: growth control rate is above 85%)
CC(O/N=C/c1cc(-n2c(=O)cc(C(F)(F)F)n(C)c2=O)c(F)cc1Cl)C(=O)O/N=C/c1ccccc1 (stereo not drawn) [Compound 255] | 5 (Level 5: growth control rate is above 85%)
CC(C)=NOCCOC(=O)C(C)O/N=C/c1cc(-n2c(=O)cc(C(F)(F)F)n(C)c2=O)c(F)cc1Cl (stereo not drawn) [Compound 259] | 5 (Level 5: growth control rate is above 85%)

tested on: Setaria viridis; experiment: Weeding effect in post-emergence stage; type: in vivo; details: Dose 15 g/ha; level of fresh weight growth control rate
Procedure, shortened: as §1

Structure (SMILES) | Weeding effect in post-emergence stage, Setaria viridis
COC/C(C)=N/OC(=O)C(C)O/N=C/c1cc(-n2c(=O)cc(C(F)(F)F)n(C)c2=O)c(F)cc1Cl (stereo not drawn) [Compound 253] | 5 (Level 5: growth control rate is above 85%)
CCOC(=O)/C(C)=N/OC(=O)C(C)O/N=C/c1cc(-n2c(=O)cc(C(F)(F)F)n(C)c2=O)c(F)cc1Cl (stereo not drawn) [Compound 254] | 5 (Level 5: growth control rate is above 85%)
CC(O/N=C/c1cc(-n2c(=O)cc(C(F)(F)F)n(C)c2=O)c(F)cc1Cl)C(=O)ON=C1CCCC1 (stereo not drawn) [Compound 258] | 5 (Level 5: growth control rate is above 85%)

same assay, conditions: Dose 30 g/ha; level of fresh weight growth control rate

Structure (SMILES) | Weeding effect in post-emergence stage, Setaria viridis
COC(=O)CCOC(=O)C(C)O/N=C/c1cc(-n2c(=O)cc(C(F)(F)F)n(C)c2=O)c(F)cc1Cl (stereo not drawn) [Compound 240] | 5 (Level 5: growth control rate is above 85%)
COC(=O)C(C)OC(=O)C(C)O/N=C/c1cc(-n2c(=O)cc(C(F)(F)F)n(C)c2=O)c(F)cc1Cl (stereo not drawn) [Compound 241] | 5 (Level 5: growth control rate is above 85%)
COC(=O)C(OC)OC(=O)C(C)O/N=C/c1cc(-n2c(=O)cc(C(F)(F)F)n(C)c2=O)c(F)cc1Cl (stereo not drawn) [Compound 245] | 5 (Level 5: growth control rate is above 85%)
CC(O/N=C/c1cc(-n2c(=O)cc(C(F)(F)F)n(C)c2=O)c(F)cc1Cl)C(=O)O/N=C/c1ccccc1 (stereo not drawn) [Compound 255] | 5 (Level 5: growth control rate is above 85%)
CC(C)=NOCCOC(=O)C(C)O/N=C/c1cc(-n2c(=O)cc(C(F)(F)F)n(C)c2=O)c(F)cc1Cl (stereo not drawn) [Compound 259] | 5 (Level 5: growth control rate is above 85%)

tested on: Eleusine indica; experiment: Weeding effect in post-emergence stage; type: in vivo; details: Dose 15 g/ha; level of fresh weight growth control rate
Procedure, shortened: as §1

Structure (SMILES) | Weeding effect in post-emergence stage, Eleusine indica
COC/C(C)=N/OC(=O)C(C)O/N=C/c1cc(-n2c(=O)cc(C(F)(F)F)n(C)c2=O)c(F)cc1Cl (stereo not drawn) [Compound 253] | 5 (Level 5: growth control rate is above 85%)
CCOC(=O)/C(C)=N/OC(=O)C(C)O/N=C/c1cc(-n2c(=O)cc(C(F)(F)F)n(C)c2=O)c(F)cc1Cl (stereo not drawn) [Compound 254] | 5 (Level 5: growth control rate is above 85%)
CC(O/N=C/c1cc(-n2c(=O)cc(C(F)(F)F)n(C)c2=O)c(F)cc1Cl)C(=O)ON=C1CCCC1 (stereo not drawn) [Compound 258] | 5 (Level 5: growth control rate is above 85%)

same assay, conditions: Dose 30 g/ha; level of fresh weight growth control rate

Structure (SMILES) | Weeding effect in post-emergence stage, Eleusine indica
COC(=O)CCOC(=O)C(C)O/N=C/c1cc(-n2c(=O)cc(C(F)(F)F)n(C)c2=O)c(F)cc1Cl (stereo not drawn) [Compound 240] | 5 (Level 5: growth control rate is above 85%)
COC(=O)C(C)OC(=O)C(C)O/N=C/c1cc(-n2c(=O)cc(C(F)(F)F)n(C)c2=O)c(F)cc1Cl (stereo not drawn) [Compound 241] | 5 (Level 5: growth control rate is above 85%)
COC(=O)C(OC)OC(=O)C(C)O/N=C/c1cc(-n2c(=O)cc(C(F)(F)F)n(C)c2=O)c(F)cc1Cl (stereo not drawn) [Compound 245] | 5 (Level 5: growth control rate is above 85%)
CC(O/N=C/c1cc(-n2c(=O)cc(C(F)(F)F)n(C)c2=O)c(F)cc1Cl)C(=O)O/N=C/c1ccccc1 (stereo not drawn) [Compound 255] | 5 (Level 5: growth control rate is above 85%)
CC(C)=NOCCOC(=O)C(C)O/N=C/c1cc(-n2c(=O)cc(C(F)(F)F)n(C)c2=O)c(F)cc1Cl (stereo not drawn) [Compound 259] | 5 (Level 5: growth control rate is above 85%)

tested on: Digitaria sanguinalis; experiment: Weeding effect in post-emergence stage; type: in vivo; details: Dose 15 g/ha; level of fresh weight growth control rate
Procedure, shortened: as §1

Structure (SMILES) | Weeding effect in post-emergence stage, Digitaria sanguinalis
COC/C(C)=N/OC(=O)C(C)O/N=C/c1cc(-n2c(=O)cc(C(F)(F)F)n(C)c2=O)c(F)cc1Cl (stereo not drawn) [Compound 253] | 5 (Level 5: growth control rate is above 85%)
CCOC(=O)/C(C)=N/OC(=O)C(C)O/N=C/c1cc(-n2c(=O)cc(C(F)(F)F)n(C)c2=O)c(F)cc1Cl (stereo not drawn) [Compound 254] | 5 (Level 5: growth control rate is above 85%)
CC(O/N=C/c1cc(-n2c(=O)cc(C(F)(F)F)n(C)c2=O)c(F)cc1Cl)C(=O)ON=C1CCCC1 (stereo not drawn) [Compound 258] | 5 (Level 5: growth control rate is above 85%)

same assay, conditions: Dose 30 g/ha; level of fresh weight growth control rate

Structure (SMILES) | Weeding effect in post-emergence stage, Digitaria sanguinalis
COC(=O)CCOC(=O)C(C)O/N=C/c1cc(-n2c(=O)cc(C(F)(F)F)n(C)c2=O)c(F)cc1Cl (stereo not drawn) [Compound 240] | 5 (Level 5: growth control rate is above 85%)
COC(=O)C(C)OC(=O)C(C)O/N=C/c1cc(-n2c(=O)cc(C(F)(F)F)n(C)c2=O)c(F)cc1Cl (stereo not drawn) [Compound 241] | 5 (Level 5: growth control rate is above 85%)
COC(=O)C(OC)OC(=O)C(C)O/N=C/c1cc(-n2c(=O)cc(C(F)(F)F)n(C)c2=O)c(F)cc1Cl (stereo not drawn) [Compound 245] | 5 (Level 5: growth control rate is above 85%)
CC(O/N=C/c1cc(-n2c(=O)cc(C(F)(F)F)n(C)c2=O)c(F)cc1Cl)C(=O)O/N=C/c1ccccc1 (stereo not drawn) [Compound 255] | 5 (Level 5: growth control rate is above 85%)
CC(C)=NOCCOC(=O)C(C)O/N=C/c1cc(-n2c(=O)cc(C(F)(F)F)n(C)c2=O)c(F)cc1Cl (stereo not drawn) [Compound 259] | 5 (Level 5: growth control rate is above 85%)

tested on: Alopecurus japonicus; experiment: Weeding effect in post-emergence stage; type: in vivo; details: Dose 15 g/ha; level of fresh weight growth control rate
Procedure, shortened: as §1

Structure (SMILES) | Weeding effect in post-emergence stage, Alopecurus japonicus
COC/C(C)=N/OC(=O)C(C)O/N=C/c1cc(-n2c(=O)cc(C(F)(F)F)n(C)c2=O)c(F)cc1Cl (stereo not drawn) [Compound 253] | 5 (Level 5: growth control rate is above 85%)
CCOC(=O)/C(C)=N/OC(=O)C(C)O/N=C/c1cc(-n2c(=O)cc(C(F)(F)F)n(C)c2=O)c(F)cc1Cl (stereo not drawn) [Compound 254] | 5 (Level 5: growth control rate is above 85%)
CC(O/N=C/c1cc(-n2c(=O)cc(C(F)(F)F)n(C)c2=O)c(F)cc1Cl)C(=O)ON=C1CCCC1 (stereo not drawn) [Compound 258] | 4 (Level 4: growth control rate is greater than or equal to 60% and less than 85%)

same assay, conditions: Dose 30 g/ha; level of fresh weight growth control rate

Structure (SMILES) | Weeding effect in post-emergence stage, Alopecurus japonicus
COC(=O)CCOC(=O)C(C)O/N=C/c1cc(-n2c(=O)cc(C(F)(F)F)n(C)c2=O)c(F)cc1Cl (stereo not drawn) [Compound 240] | 5 (Level 5: growth control rate is above 85%)
COC(=O)C(C)OC(=O)C(C)O/N=C/c1cc(-n2c(=O)cc(C(F)(F)F)n(C)c2=O)c(F)cc1Cl (stereo not drawn) [Compound 241] | 5 (Level 5: growth control rate is above 85%)
COC(=O)C(OC)OC(=O)C(C)O/N=C/c1cc(-n2c(=O)cc(C(F)(F)F)n(C)c2=O)c(F)cc1Cl (stereo not drawn) [Compound 245] | 5 (Level 5: growth control rate is above 85%)
CC(O/N=C/c1cc(-n2c(=O)cc(C(F)(F)F)n(C)c2=O)c(F)cc1Cl)C(=O)O/N=C/c1ccccc1 (stereo not drawn) [Compound 255] | 5 (Level 5: growth control rate is above 85%)
CC(C)=NOCCOC(=O)C(C)O/N=C/c1cc(-n2c(=O)cc(C(F)(F)F)n(C)c2=O)c(F)cc1Cl (stereo not drawn) [Compound 259] | 5 (Level 5: growth control rate is above 85%)

tested on: Abutilon theophrasti; experiment: Weeding effect in post-emergence stage; type: in vivo; details: Dose 15 g/ha; level of fresh weight growth control rate
Procedure, shortened: as §1

Structure (SMILES) | Weeding effect in post-emergence stage, Abutilon theophrasti
COC/C(C)=N/OC(=O)C(C)O/N=C/c1cc(-n2c(=O)cc(C(F)(F)F)n(C)c2=O)c(F)cc1Cl (stereo not drawn) [Compound 253] | 5 (Level 5: growth control rate is above 85%)
CCOC(=O)/C(C)=N/OC(=O)C(C)O/N=C/c1cc(-n2c(=O)cc(C(F)(F)F)n(C)c2=O)c(F)cc1Cl (stereo not drawn) [Compound 254] | 5 (Level 5: growth control rate is above 85%)
CC(O/N=C/c1cc(-n2c(=O)cc(C(F)(F)F)n(C)c2=O)c(F)cc1Cl)C(=O)ON=C1CCCC1 (stereo not drawn) [Compound 258] | 5 (Level 5: growth control rate is above 85%)

same assay, conditions: Dose 30 g/ha; level of fresh weight growth control rate

Structure (SMILES) | Weeding effect in post-emergence stage, Abutilon theophrasti
COC(=O)CCOC(=O)C(C)O/N=C/c1cc(-n2c(=O)cc(C(F)(F)F)n(C)c2=O)c(F)cc1Cl (stereo not drawn) [Compound 240] | 5 (Level 5: growth control rate is above 85%)
COC(=O)C(C)OC(=O)C(C)O/N=C/c1cc(-n2c(=O)cc(C(F)(F)F)n(C)c2=O)c(F)cc1Cl (stereo not drawn) [Compound 241] | 5 (Level 5: growth control rate is above 85%)
COC(=O)C(OC)OC(=O)C(C)O/N=C/c1cc(-n2c(=O)cc(C(F)(F)F)n(C)c2=O)c(F)cc1Cl (stereo not drawn) [Compound 245] | 5 (Level 5: growth control rate is above 85%)
CC(O/N=C/c1cc(-n2c(=O)cc(C(F)(F)F)n(C)c2=O)c(F)cc1Cl)C(=O)O/N=C/c1ccccc1 (stereo not drawn) [Compound 255] | 5 (Level 5: growth control rate is above 85%)
CC(C)=NOCCOC(=O)C(C)O/N=C/c1cc(-n2c(=O)cc(C(F)(F)F)n(C)c2=O)c(F)cc1Cl (stereo not drawn) [Compound 259] | 5 (Level 5: growth control rate is above 85%)
